Patent EP0966963A1, “Use of indigoid bisindole derivatives as CDK1 inhibitors” (Eisenbrand, Gerhard, Prof. Dr., priority 1998, dated 1999)

Columns and labels:
[1] = molecular target: CDK4 (Homo sapiens, UniProt P11802); details: known chemical inhibitors, Meijer 1996; cited from earlier work
[2] = tested on: PKA; details: known chemical inhibitors, Meijer 1996; cited from earlier work
[3] = molecular target: cAMP-dependent protein kinase; assay: PKA inhibition (specificity panel); format: biochemical
[4] = molecular target: p34^cdc2/cyclin B; assay: p34cdc2/cyclin B kinase assay (histone H1 phosphorylation, [32P]ATP); format: biochemical, starfish (Marthasterias glacialis); details: 1 mg histone H1/ml, 15 µM ATP, 10 min at 30°C
Protocol: J. Biochem., 243, (1997), 527-536). […] After 10 min. incubation at 30°C, 25 μl aliquots of supernatant were spotted onto 2.5 x 3 cm pieces of Whatman P81 phosphocellulose paper, and after 20 sec., the filters were washed five times (for at least 5 min. each time) in a solution of 10 ml phosphoric acid/liter of water. The wet filters were transferred into 6 ml plastic scintillation vials, 5 ml ACS (Amersham) scintillation fluid was added and the radioactivity measured in a Packard scintillation counter.

[5] = tested on: cdc25; assay: cdc25 inhibition (specificity panel); format: biochemical
[6] = molecular target: Ca^2+- dependent protein kinase; assay: PKC inhibition (specificity panel); format: biochemical

Chain of CDK4 (P11802 whole entry, species assumed): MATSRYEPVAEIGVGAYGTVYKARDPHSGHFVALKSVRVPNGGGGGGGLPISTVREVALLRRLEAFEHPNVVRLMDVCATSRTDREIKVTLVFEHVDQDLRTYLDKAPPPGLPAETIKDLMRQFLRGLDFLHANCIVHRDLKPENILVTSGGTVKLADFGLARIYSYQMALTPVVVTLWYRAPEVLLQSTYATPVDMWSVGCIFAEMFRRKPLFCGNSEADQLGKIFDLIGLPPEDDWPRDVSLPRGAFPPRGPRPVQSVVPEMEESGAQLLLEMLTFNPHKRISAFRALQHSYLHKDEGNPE
Chain of CDK4 (P24385 whole entry partner, species assumed): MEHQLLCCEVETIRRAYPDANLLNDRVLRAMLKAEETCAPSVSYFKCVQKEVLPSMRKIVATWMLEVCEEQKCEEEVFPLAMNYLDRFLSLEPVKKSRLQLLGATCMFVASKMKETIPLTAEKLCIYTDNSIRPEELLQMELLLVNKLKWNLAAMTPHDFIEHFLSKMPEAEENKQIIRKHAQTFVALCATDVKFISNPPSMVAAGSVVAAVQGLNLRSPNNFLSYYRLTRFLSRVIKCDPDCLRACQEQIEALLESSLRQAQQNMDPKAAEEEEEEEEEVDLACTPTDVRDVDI

| SMILES | IC50 [2] | IC50 PKA [3] | IC50 [4] | IC50 PKC [6] | further results |
| --- | --- | --- | --- | --- | --- |
| COC(=O)[C@@]1(Cc2ccc(O)c(CC=C(C)C)c2)OC(=O)C(O)=C1c1ccc(O)cc1 [Butyrolactone-l] | 260 µM | – | – | – | IC50 CDK4 [1]: no effect |
| O=C1Nc2ccccc2C1=C1Nc2ccccc2C1=O [Example 1, Indirubine] | – | no Effect | 2 µM | no Effect | IC50 [5]: 150 µM |
| O=C1Nc2ccc(I)cc2C1=C1Nc2ccccc2C1=O [Example 2, 5-Iodoindirubine] | – | no Effect | – | no Effect | – |
| O=C1Nc2ccccc2C1=C1Nc2ccccc2C1=NO [Example 10, Indirubine-3'-oxime] | – | – | 0.18 µM | – | – |
| CN1CC[C@H](c2c(O)cc(O)c3c(=O)cc(-c4ccccc4Cl)oc23)[C@H](O)C1 [Flavopiridol] | 145 µM | – | – | – | – |
